Patent US20250169715A1, “USE OF BLINK REFLEX FOR HEADACHE RESPONSE MONITORING AND/OR TREATMENT SELECTION” (priority 2022, published 2025)

Test system: patients with headache/migraine
Assay: Blink reflex measuring device: blink-associated parameters before and after treatment, by treatment modality
Type: in vivo, human
From the text: In embodiments, the one or more blink-associated parameters are selected from: • (a) latency, optionally in milliseconds, comprising a time differential between stimulation and eyelid movement, e.g., one or more of upper eyelid or lower eyelid; • (b) differential latency, optionally in milliseconds, comprising a time differential between the start of ipsilateral eye movement and the start of contralateral eye movement; • (c) delta 30, comprising a time difference between ipsilateral eye and contralateral eye movement; • (d) eyelid excursion, optionally in pixels, comprising a distance traveled by the eyelid from the tonic lid position to closed position; • (e) initial lid velocity, optionally in pixels/msec, comprising an average eyelid speed following start of eyelid movement, e.g., the first about 5 frames, the first about 7 frames, or the first about 10 frames; • (f) time to close, optionally in log scale, comprising a time for lid to travel from tonic lid position to the closed position; • (g) time to open, optionally in log scale, comprising a time for lid to travel from closed position back to tonic lid position; • (h) time under threshold, optionally in log scale, comprising a time that the eyelid spends below the threshold position; • (i) number of oscillations, comprising cycles of up and down upper eyelid movement after a stimulated blink; • (j) total blink time, optionally in log scale, comprising a time from start of eyelid movement until it returns to its tonic lid position; • (k) number of blinks; • (l) blink rate, optionally per minute; • (m) area under curve, optionally in pixels; • (n) maximum closing velocity, optionally in […], comprising a maximum velocity during eyelid closure; • (o) maximum opening velocity, optionally in […], comprising a maximum velocity during eyelid opening; and • (p) time to first oscillation, optionally in log scale, comprising the elapsed time between the eyelid returning within threshold of a tonic position for a stimulated blink and the onset of the next unstimulated blink.
In this study, a population of male and female migraine patients are assessed for blink reflex response using the blink reflex measuring device. The patients in this study are tested when they visit the doctor during their routine office visits and/or before and after a doctor prescribed therapeutic intervention.
Blink reflex measuring device was used for collecting multiple blink-associated parameters from patients with headache/migraine before and after treatment undergoing treatment.
Blink reflex measuring device was used for collecting multiple blink-associated parameters from patients with headache/migraine before and after undergoing different treatments. The different treatments were intravenous (IV) ketamine infusion therapy, sphenopalatine ganglion (SPG) block+peripheral nerve block (PNB), and IV ketamine+SPG+PNB. The results are shown in TABLE 2, FIGS. 34-6D and FIG. 7.
TABLES 4-6 show the variable changes based on right and left eye by treatment modality: intravenous (IV) ketamine infusion therapy (TABLE 4); sphenopalatine ganglion (SPG) block+peripheral nerve block (PNB) (TABLE 5); and IV ketamine+SPG+PNB (TABLE 6). It is important to note that whereas FIGS. 34-6D and FIG. 7 show the changes based on treatment modality of each variable and show the overall changes predicated on both right and left eye, TABLES 4-6 break down the variables by right and left eye changes.

[1] = left eye, post treatment, Table 4
[2] = post-treatment average, patients with headache/migraine, by treatment modality
[3] = right eye, post treatment, Table 4

CNC1(c2ccccc2Cl)CCCCC1=O (stereo not drawn) [ketamine]
Blink Rate, Left Eye Post Tx (left eye, post treatment): 89.415 per min
Blinks, Left Eye Post Tx (left eye, post treatment): 5.945 qty
Delta 30, Left Eye Post Tx (left eye, post treatment): 9.328 ms
Differential Latency, Left Eye Post Tx (left eye, post treatment): 4.625 ms
Excursions, Left Eye Post Tx (left eye, post treatment): 91.548 pixels
Latency, Left Eye Post Tx (left eye, post treatment): 53.958 ms
Oscillations Rate, Left Eye Post Tx (left eye, post treatment): 2.293 per min
Oscillations, Left Eye Post Tx (left eye, post treatment): 9.914 no.
Time to Close, Left Eye Post Tx (left eye, post treatment): 27.686 ms
Time to First Oscillation, Left Eye Post Tx (left eye, post treatment): 7.301 Ln ms
Time to Open, Left Eye Post Tx (left eye, post treatment): 286.813 ms
Area Under the Curve, Left Eye Post Tx [1]: 10.250 pixels
Time Under 20, Left Eye Post Tx [1]: 5.228 Ln ms
Blink reflex differences pre and post treatment via Blink Reflex Measuring Device (patients having a migraine, p=0.05): Statistical differences
Area Under Curve, POST-TX AVERAGE [2]: 29522.632 pixels
Blink Rate, POST-TX AVERAGE [2]: 83.490 per min
Blinks, POST-TX AVERAGE [2]: 5.345 qty
Delta 30, POST-TX AVERAGE [2]: 7.435 ms
Differential Latency, POST-TX AVERAGE [2]: 6.145 ms
Excursion, POST-TX AVERAGE [2]: 88.575 pixels
Latency, POST-TX AVERAGE [2]: 49.827 ms
Oscillations, POST-TX AVERAGE [2]: 10.273 no.
Time Under 20, POST-TX AVERAGE [2]: 5.237 Ln ms
Time to Close, POST-TX AVERAGE [2]: 29.930 ms
Time to First Oscillation, POST-TX AVERAGE [2]: 7.412 Ln ms
Time to Open, POST-TX AVERAGE [2]: 307.108 ms
Blink Rate, Right Eye Post Tx (right eye, post treatment): 73.691 per min
Blinks, Right Eye Post Tx (right eye, post treatment): 5.170 qty
Delta 30, Right Eye Post Tx (right eye, post treatment): 5.766 ms
Differential Latency, Right Eye Post Tx (right eye, post treatment): 5.438 ms
Excursions, Right Eye Post Tx (right eye, post treatment): 92.605 pixels
Latency, Right Eye Post Tx (right eye, post treatment): 52.583 ms
Oscillations Rate, Right Eye Post Tx (right eye, post treatment): 1.966 per min
Oscillations, Right Eye Post Tx (right eye, post treatment): 8.606 no.
Time to Close, Right Eye Post Tx (right eye, post treatment): 31.119 ms
Time to First Oscillation, Right Eye Post Tx (right eye, post treatment): 7.517 Ln ms
Time to Open, Right Eye Post Tx (right eye, post treatment): 258.318 ms
Area Under the Curve, Right Eye Post Tx [3]: 10.157 pixels
Time Under 20, Right Eye Post Tx [3]: 5.099 Ln ms
